In US20130231303A1, “5-HALOGENOPYRAZOLE(THIO)CARBOXAMIDES” (Bayer Intellectual Property GmbH, priority 2010, published 2013):
Where two headings read alike, the source gives them in different places.

How the values were obtained:
[1] = logP by HPLC on reversed-phase column (EEC Directive 79/831 Annex V.A8); assay type: physicochemical
Experimental: In table 1, the logP values were determined in accordance with EEC Directive 79/831 Annex V.A8 by HPLC (High Performance Liquid Chromatography) on a reversed-phase column (C 18), using the method described below: Temperature: 40° C.; Mobile phases: 0.1% aqueous formic acid and acetonitrile; linear gradient from 10% acetonitrile to 90% acetonitrile. Calibration was carried out using unbranched alkan-2-ones (comprising 3 to 16 carbon atoms) with known logP values (determination of the logP values by the retention times using linear interpolation between two successive alkanones). lambda-max-values were determined using UV-spectra from 200 nm to 400 nm and the peak values of the chromatographic signals.

Puccinia recondita = experiment: Puccinia test (wheat)/preventive; assay type: in vivo; conditions: preventive, 500 ppm, evaluated 7-9 days after inoculation
Experimental: (§1) The plants remain for 48 hours in an incubation cabinet at 22° C. and a relative atmospheric humidity of 100%. Then the plants are placed in a greenhouse at a temperature of approximately 20° C. and a relative atmospheric humidity of approximately 80%.

Pyrenophora teres = experiment: Pyrenophora test (barley)/preventive; assay type: in vivo; conditions: preventive, 500 ppm, evaluated 7-9 days after inoculation
Experimental: as §1

Alternaria solani = experiment: Alternaria test (tomato)/preventive; assay type: in vivo; conditions: preventive, 500 ppm, evaluated 7 days after inoculation
Experimental: The plants remain for one day in an incubation cabinet at approximately 22° C. and a relative atmospheric humidity of 100%. Then the plants are placed in an incubation cabinet at approximately 20° C. and a relative atmospheric humidity of 96%.

[2] = tested on: Blumeria graminis f.sp. hordei; experiment: Blumeria test (barley)/preventive; assay type: in vivo; conditions: preventive, 500 ppm, evaluated 7 days after inoculation
Experimental: After the spray coating has been dried, the plants are dusted with spores of Blumeria graminis f.sp. hordei. The plants are placed in the greenhouse at a temperature of approximately 18° C. and a relative atmospheric humidity of approximately 80% to promote the development of mildew pustules.

[3] = tested on: Fusarium nivale (var. majus); experiment: Fusarium nivale (var. majus)-test (wheat)/preventive; assay type: in vivo; conditions: preventive; for Efficacy: evaluated 5 days after inoculation
Experimental: After the spray coating has been dried, the plants are slightly injured by using a sandblast and afterwards they are sprayed with a conidia suspension of Fusarium nivale (var. majus). The plants are placed in the greenhouse under a translucent incubation cabinet at a temperature of approximately 10° C. and a relative atmospheric humidity of approximately 100%.

Phakopsora pachyrhizi = experiment: Phakopsora test (soybeans)/protective; assay type: in vivo; conditions: protective, 250 ppm, evaluated 11 days after inoculation
Excerpt: Phakopsora Test (Soybeans)/Protective

Botrytis cinerea = experiment: Botrytis test (beans)/preventive; assay type: in vivo; conditions: preventive, 100 ppm, lesion size 2 days after inoculation
Experimental: Botrytis Test (Beans)/Preventive
• Solvent: 24.5 parts by weight of acetone • 24.5 parts by weight of N,N-dimethylformamide • Emulsifier: 1 part by weight of alkylaryl polyglycol ether
After the spray coating has dried on, 2 small pieces of agar covered with growth of Botrytis cinerea are placed on each leaf. The inoculated plants are placed in a darkened chamber at 20° C. and a relative atmospheric humidity of 100%.
2 days after the inoculation, the size of the lesions on the leaves is evaluated.

Uromyces appendiculatus = experiment: Uromyces test (beans)/preventive; assay type: in vivo; conditions: preventive, 100 ppm, evaluated 10 days after inoculation
Excerpt: Uromyces Test (Beans)/Preventive

Venturia inaequalis = experiment: Venturia test (apples)/preventive; assay type: in vivo; conditions: preventive, 100 ppm, evaluated 10 days after inoculation
Experimental: Venturia Test (Apples)/Preventive […] After the spray coating has dried on, the plants are inoculated with an aqueous conidia suspension of the causal agent of apple scab (Venturia inaequalis) and then remain for 1 day in an incubation cabinet at approximately 20° C. and a relative atmospheric humidity of 100%.

Sphaerotheca fuliginea = experiment: Sphaerotheca test (cucumber)/preventive; assay type: in vivo; conditions: preventive, 500 ppm, evaluated 7 days after inoculation
Experimental: Then the plants are placed in a greenhouse at approximately 23° C. and a relative atmospheric humidity of approximately 70%.

[4] = HPLC, reversed-phase C 18, 40° C., 0.1% aqueous formic acid and acetonitrile gradient

Row | SMILES | Efficacy (Puccinia recondita) | Efficacy (Pyrenophora teres) | Efficacy (Alternaria solani) | logP [1, 4] | further results
1 | CCCC(CCC)c1sccc1NC(=O)c1c(C(F)F)nn(C)c1Cl [Example 14] | 70% | 94% |  |  | logP [1]: 4.54
2 | Cn1nc(C(F)F)c(C(=O)Nc2ccsc2-c2ccccc2)c1F [Example 38] |  |  |  |  | logP [1]: 3.11
3 | CCC=C(CCC)c1sccc1NC(=O)c1c(C(F)F)nn(C)c1Cl (mixture of isomers) [Example 32] | 80% |  |  |  | 
4 | Cn1nc(C(F)F)c(C(=O)Nc2ccsc2C=CC(C)(C)C)c1Cl [Example 23] | 90% | 80% | 70% | 3.92 | 
5 | CCC(C)C(C)Cc1sccc1NC(=O)c1c(C(F)F)nn(C)c1Cl (stereo not shown) [Example 13] | 90% | 100% | 95% | 4.41 | Efficacy [2]: 100%; Efficacy ([3]; 500 ppm): 100%
6 | C=C(c1sccc1NC(=O)c1c(C(F)F)nn(C)c1Cl)C1CCCCC1 [Example 36] | 80% | 95% |  |  | 
7 | CC(=CC(C)(C)C)c1sccc1NC(=O)c1c(C(F)F)nn(C)c1Cl (mixture of isomers) [Example 33] | 95% | 94% | 88% |  | 
8 | CC(C)CC(C)c1sccc1NC(=O)c1c(C(F)F)nn(C)c1F (stereo not shown) [Example 4] | 100% | 100% | 100% | 3.94 | Efficacy (Phakopsora pachyrhizi): 99%; Efficacy [2]: 100%; Efficacy (Botrytis cinerea): 97%; Efficacy (Uromyces appendiculatus): 100%; Efficacy (Venturia inaequalis): 100%; Efficacy (Sphaerotheca fuliginea): 100%
9 | CCC(C)C(C)c1sccc1NC(=O)c1c(C(F)F)nn(C)c1Cl (stereo not shown) [Example 10] | 90% | 100% |  |  | logP [1]: 3.99
10 | CCC(C)=C(C)c1sccc1NC(=O)c1c(C(F)F)nn(C)c1Cl [Example 28] | 80% | 100% | 94% | 4.23 | 
11 | CCCCC=Cc1sccc1NC(=O)c1c(C(F)F)nn(C)c1Cl [Example 25] |  |  |  |  | logP [1]: 4.12
12 | Cn1nc(C(F)F)c(C(=O)Nc2ccsc2CCC(C)(C)C)c1Cl [Example 6] | 100% | 100% | 95% | 4.01 | Efficacy [2]: 94%; Efficacy ([3]; 500 ppm): 100%; Efficacy (Sphaerotheca fuliginea): 89%
13 | CCCC(C)c1sccc1NC(=O)c1c(C(F)F)nn(C)c1Cl (stereo not shown) [Example 2] | 100% | 100% | 94% | 3.70 | 
14 | CC(C)CC(C)c1sccc1NC(=O)c1cn(C)nc1C(F)(F)F (stereo not shown) [Example 1.13 from EP-0737682, 1-methyl-N-[2-(4-methylpentan-2-yl)-3-thienyl]-3-(trifluoromethyl)-1H-pyrazole-4-carboxamide, reference compound] |  |  |  |  | Efficacy ([3]; 250 ppm): 14%; Efficacy ([3]; 500 ppm): 43%; protection ([3]; dose of 250 ppm and 500 ppm (text summary of table G2)): less than 50%
15 | Cn1nc(C(F)F)c(C(=S)Nc2ccsc2CC[Si](C)(C)C)c1F [Example 20] |  |  |  |  | logP [1]: 4.46
16 | CC(c1sccc1NC(=O)c1c(C(F)F)nn(C)c1Cl)C1CCCCC1 (stereo not shown) [Example 21] | 95% | 100% | 95% | 4.56 | 
17 | CC=C(c1ccccc1)c1sccc1NC(=O)c1c(C(F)F)nn(C)c1Cl [Example 37] |  |  |  |  | logP [1]: 3.70
18 | CCC(CC(C)C)c1sccc1NC(=O)c1c(C(F)F)nn(C)c1Cl (stereo not shown) [Example 15] | 90% | 100% | 88% | 4.46 | Efficacy [2]: 94%
19 | Cn1nc(C(F)F)c(C(=O)Nc2ccsc2CC[Si](C)(C)C)c1Cl [Example 18] | 100% | 100% | 80% | 4.30 | Efficacy [2]: 92%; Efficacy (Botrytis cinerea): 91%; Efficacy (Uromyces appendiculatus): 100%; Efficacy ([3]; 500 ppm): 100%; Efficacy (Venturia inaequalis): 94%; Efficacy (Sphaerotheca fuliginea): 98%

Row | SMILES | Efficacy (Puccinia recondita) | Efficacy (Pyrenophora teres) | Efficacy (Alternaria solani) | logP [1, 4] | further results
20 | CC=C(c1sccc1NC(=O)c1c(C(F)F)nn(C)c1Cl)C(C)C [Example 27] | 80% | 89% | 75% | 4.26 | 
21 | CCCCC(C)c1sccc1NC(=O)c1c(C(F)F)nn(C)c1Cl (stereo not shown) [Example 7] | 100% | 95% |  | 4.25 | Efficacy ([3]; 500 ppm): 90%
22 | CCC(=Cc1sccc1NC(=O)c1c(C(F)F)nn(C)c1Cl)CC [Example 24] | 90% | 90% |  |  | logP [1]: 4.06
23 | CCC(c1sccc1NC(=O)c1c(C(F)F)nn(C)c1Cl)C(C)C (stereo not shown) [Example 9] | 80% | 100% | 94% | 4.07 | 
24 | CCCCC(C)c1sccc1NC(=O)c1c(C(F)F)nn(C)c1Cl (stereo not shown) [Example 8] | 95% | 100% | 94% | 4.13 | 
25 | CC(CCCC#N)c1sccc1NC(=O)c1c(C(F)F)nn(C)c1Cl (stereo not shown) [Example 11] | 100% | 94% |  |  | logP [1]: 2.57
26 | CCC(C)C(C)=Cc1sccc1NC(=O)c1c(C(F)F)nn(C)c1Cl (stereo not shown) [Example 31] |  | 70% |  | 4.41 | 
27 | Cn1nc(C(F)F)c(C(=O)Nc2cc(-c3ccc(Cl)cc3)cs2)c1F [Example 41] |  |  |  |  | logP [1]: 3.87
28 | CC(CC(C)(C)C)c1sccc1NC(=O)c1c(C(F)F)nn(C)c1Cl (stereo not shown) [Example 17] | 100% | 94% | 94% | 4.29 | Efficacy (Sphaerotheca fuliginea): 100%
29 | CC(C)CCc1sccc1NC(=O)c1c(C(F)F)nn(C)c1Cl [Example 1] | 95% | 100% | 100% | 3.74 | Efficacy [2]: 94%; Efficacy ([3]; 500 ppm): 80%
30 | Cn1nc(C(F)F)c(C(=O)Nc2ccsc2CC2CCCCC2)c1Cl [Example 12] | 95% | 100% | 100% | 4.27 | Efficacy [2]: 94%
31 | CCCC=C(C)c1sccc1NC(=O)c1c(C(F)F)nn(C)c1Cl (mixture of isomers) [Example 26] |  | 89% | 75% |  | 
32 | Cc1ccc(-c2ccsc2NC(=O)c2c(C(F)F)nn(C)c2F)cc1 [Example 40] |  |  |  |  | logP [1]: 3.60
33 | CCC=C(C)c1sccc1NC(=O)c1c(C(F)F)nn(C)c1Cl (mixture of isomers) [Example 22] | 80% | 94% | 94% |  | 
34 | Cn1nc(C(F)F)c(C(=O)Nc2ccsc2C=C2CCCCC2)c1Cl [Example 30] |  | 80% | 70% |  | logP [1]: 4.25
35 | CC(=CCC(C)C)c1sccc1NC(=O)c1c(C(F)F)nn(C)c1Cl (mixture of isomers) [Example 34] |  | 78% |  |  | 
36 | CCC(CC)Cc1sccc1NC(=O)c1c(C(F)F)nn(C)c1Cl [Example 5] | 90% | 100% | 100% | 4.03 | 
37 | CC(C)CCC(C)c1sccc1NC(=O)c1c(C(F)F)nn(C)c1Cl (stereo not shown) [Example 16] | 100% | 94% | 88% | 4.45 | 
38 | Cn1nc(C(F)F)c(C(=O)Nc2ccsc2CC[Si](C)(C)C)c1F [Example 19] | 100% | 100% | 90% | 4.06 | Efficacy [2]: 100%; Efficacy (Botrytis cinerea): 100%; Efficacy (Uromyces appendiculatus): 100%; Efficacy ([3]; 500 ppm): 100%; Efficacy (Venturia inaequalis): 99%; Efficacy (Sphaerotheca fuliginea): 100%
